Here are results for one molecule from ChEMBL document CHEMBL1159008, “Isolation, NMR studies, and biological activities of onopordopicrin from Centaurea sonchifolia” (J Nat Prod, 1992).

One assay relates to Saccharomyces cerevisiae. Put plainly: Antifungal activity against Saccharomyces cerevisiae M25 at 250 ug/dsik. Type of assay: functional, organism-based.
In a further assay the test system is KB. The assay can be described thus: Cytotoxicity against human KB cells. Type of assay: functional, cell-based.
The test system of the next assay is Candida albicans. The assay can be described thus: Antifungal activity against Candida albicans A-26 at 250 ug/dsik. Type of assay: functional, organism-based.
The test system of assay [1] is Trichophyton mentagrophytes. Put plainly: Antifungal activity against Trichophyton mentagrophytes A-23 at 250 ug/dsik. Type of assay: functional, organism-based.
The next assay concerns Staphylococcus aureus. The assay can be described thus: Antibacterial activity against Staphylococcus aureus ATCC 25923 by disk diffusion assay. Type of assay: functional, organism-based.

≈ marks a conversion by molar mass, not a printed value. Calls of active or inactive are those of the source. The calls are words filed in the database; no cut-off is given here.

`C=C(CO)C(=O)O[C@H]1C/C(C)=C\CC/C(CO)=C\[C@H]2OC(=O)C(=C)[C@H]12` [ONOPORDOPICRIN]: the result (in the assay on Saccharomyces cerevisiae; in the assay on Candida albicans; in assay [1]) was inactive. For the same molecule, in the assay with KB, the EC50 (as a rule, the concentration that produces a half-maximal response) amounted to 0.85 µg/mL (≈ 2.44 µM). Also, in the assay on Staphylococcus aureus, the result was Active.
